How the values were obtained:
[1] = target: T1, HiBit-BRG1 fusion protein in stable HeLa cell line expressing HiBit-BRG1 and LgBit (Homo sapiens, UniProt P51532); experiment: HiBiT-BRG1 cell-based degradation assay (Nano-Glo HiBiT, 24 h); settings: HeLa HiBit-BRG1/LgBit cells; for Dmax: top dose 30 μM, read-out: BRG1 HiBit Degradation Maximum (%); for DC50: read-out: BRMG1 HiBit Degradation IC50
T1 construct: expressed in transfected cells
In short: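 Degradation calculated from NanoBiT luminescence relative to DMSO-treated cells (high) and cells given 2 μM known BRM/BRG1 degrader (low). HeLa cells stably expressing HiBiT-BRG1 plus LgBiT were exposed to compound for 24 h before lytic HiBiT detection.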

[2] = target: T2, HiBiT-BRM fusion protein in stable HeLa cell line (Homo sapiens, UniProt P51531); experiment: HiBiT-BRM cell-based degradation assay (Nano-Glo HiBiT Lytic Detection, 24 h); design: DC50: scale not given here; settings: HeLa HiBiT-BRM cells; for DC50: read-out: BRM HiBit Degradation IC50; for BRM HiBit Degradation Maximum (%): top dose 30 μM
T2 construct: expressed in transfected cells
In short: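 HiBiT-tagged BRM levels in a stable HeLa line are measured after one day of compound treatment (up to 30 μM final, duplicate 10-point curves) by adding LgBiT lytic reagent and reading bioluminescence; values are expressed relative to vehicle and a 2 μM degrader control.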

T2 sequence (P51531 whole entry, the tested form may be a part): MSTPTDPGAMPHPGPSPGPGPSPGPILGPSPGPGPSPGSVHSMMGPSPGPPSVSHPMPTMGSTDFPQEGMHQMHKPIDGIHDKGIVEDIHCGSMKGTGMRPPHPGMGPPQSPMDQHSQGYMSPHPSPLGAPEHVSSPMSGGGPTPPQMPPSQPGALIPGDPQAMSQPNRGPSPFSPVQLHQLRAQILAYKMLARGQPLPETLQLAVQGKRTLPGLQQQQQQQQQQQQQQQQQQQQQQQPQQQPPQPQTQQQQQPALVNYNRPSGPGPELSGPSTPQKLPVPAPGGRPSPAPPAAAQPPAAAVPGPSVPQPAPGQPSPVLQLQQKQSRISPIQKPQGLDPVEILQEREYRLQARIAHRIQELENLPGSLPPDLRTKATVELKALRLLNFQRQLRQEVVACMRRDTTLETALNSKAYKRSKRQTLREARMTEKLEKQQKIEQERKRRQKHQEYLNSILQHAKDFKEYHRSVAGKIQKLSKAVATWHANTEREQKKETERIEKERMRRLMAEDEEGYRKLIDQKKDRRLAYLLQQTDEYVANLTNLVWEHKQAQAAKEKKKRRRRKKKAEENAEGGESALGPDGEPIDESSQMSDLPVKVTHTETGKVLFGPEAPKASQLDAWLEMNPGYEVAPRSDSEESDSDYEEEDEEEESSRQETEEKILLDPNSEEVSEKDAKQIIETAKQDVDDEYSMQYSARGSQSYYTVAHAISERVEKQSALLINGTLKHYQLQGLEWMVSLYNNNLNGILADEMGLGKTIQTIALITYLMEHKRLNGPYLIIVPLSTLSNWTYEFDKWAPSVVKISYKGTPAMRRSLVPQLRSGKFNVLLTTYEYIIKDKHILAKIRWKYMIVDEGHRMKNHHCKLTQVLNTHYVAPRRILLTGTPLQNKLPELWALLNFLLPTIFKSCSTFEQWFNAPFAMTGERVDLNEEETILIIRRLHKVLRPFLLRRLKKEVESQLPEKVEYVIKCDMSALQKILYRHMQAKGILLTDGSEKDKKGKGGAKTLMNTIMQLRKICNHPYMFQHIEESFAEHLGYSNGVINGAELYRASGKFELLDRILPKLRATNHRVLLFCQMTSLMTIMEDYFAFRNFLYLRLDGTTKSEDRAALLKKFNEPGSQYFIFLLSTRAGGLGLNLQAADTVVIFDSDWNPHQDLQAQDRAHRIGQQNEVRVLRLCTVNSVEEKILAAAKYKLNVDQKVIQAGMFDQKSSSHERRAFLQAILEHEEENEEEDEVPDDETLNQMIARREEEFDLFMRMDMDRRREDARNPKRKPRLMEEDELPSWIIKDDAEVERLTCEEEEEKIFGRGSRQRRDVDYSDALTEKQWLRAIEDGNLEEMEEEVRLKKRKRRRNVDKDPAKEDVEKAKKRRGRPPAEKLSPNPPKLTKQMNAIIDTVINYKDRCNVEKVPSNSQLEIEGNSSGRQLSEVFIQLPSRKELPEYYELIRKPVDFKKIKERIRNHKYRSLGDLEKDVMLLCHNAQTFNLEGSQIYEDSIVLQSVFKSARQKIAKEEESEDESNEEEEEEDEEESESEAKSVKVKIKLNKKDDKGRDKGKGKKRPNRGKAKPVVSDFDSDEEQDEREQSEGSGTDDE
T1 sequence (P51532 whole entry, the tested form may be a part): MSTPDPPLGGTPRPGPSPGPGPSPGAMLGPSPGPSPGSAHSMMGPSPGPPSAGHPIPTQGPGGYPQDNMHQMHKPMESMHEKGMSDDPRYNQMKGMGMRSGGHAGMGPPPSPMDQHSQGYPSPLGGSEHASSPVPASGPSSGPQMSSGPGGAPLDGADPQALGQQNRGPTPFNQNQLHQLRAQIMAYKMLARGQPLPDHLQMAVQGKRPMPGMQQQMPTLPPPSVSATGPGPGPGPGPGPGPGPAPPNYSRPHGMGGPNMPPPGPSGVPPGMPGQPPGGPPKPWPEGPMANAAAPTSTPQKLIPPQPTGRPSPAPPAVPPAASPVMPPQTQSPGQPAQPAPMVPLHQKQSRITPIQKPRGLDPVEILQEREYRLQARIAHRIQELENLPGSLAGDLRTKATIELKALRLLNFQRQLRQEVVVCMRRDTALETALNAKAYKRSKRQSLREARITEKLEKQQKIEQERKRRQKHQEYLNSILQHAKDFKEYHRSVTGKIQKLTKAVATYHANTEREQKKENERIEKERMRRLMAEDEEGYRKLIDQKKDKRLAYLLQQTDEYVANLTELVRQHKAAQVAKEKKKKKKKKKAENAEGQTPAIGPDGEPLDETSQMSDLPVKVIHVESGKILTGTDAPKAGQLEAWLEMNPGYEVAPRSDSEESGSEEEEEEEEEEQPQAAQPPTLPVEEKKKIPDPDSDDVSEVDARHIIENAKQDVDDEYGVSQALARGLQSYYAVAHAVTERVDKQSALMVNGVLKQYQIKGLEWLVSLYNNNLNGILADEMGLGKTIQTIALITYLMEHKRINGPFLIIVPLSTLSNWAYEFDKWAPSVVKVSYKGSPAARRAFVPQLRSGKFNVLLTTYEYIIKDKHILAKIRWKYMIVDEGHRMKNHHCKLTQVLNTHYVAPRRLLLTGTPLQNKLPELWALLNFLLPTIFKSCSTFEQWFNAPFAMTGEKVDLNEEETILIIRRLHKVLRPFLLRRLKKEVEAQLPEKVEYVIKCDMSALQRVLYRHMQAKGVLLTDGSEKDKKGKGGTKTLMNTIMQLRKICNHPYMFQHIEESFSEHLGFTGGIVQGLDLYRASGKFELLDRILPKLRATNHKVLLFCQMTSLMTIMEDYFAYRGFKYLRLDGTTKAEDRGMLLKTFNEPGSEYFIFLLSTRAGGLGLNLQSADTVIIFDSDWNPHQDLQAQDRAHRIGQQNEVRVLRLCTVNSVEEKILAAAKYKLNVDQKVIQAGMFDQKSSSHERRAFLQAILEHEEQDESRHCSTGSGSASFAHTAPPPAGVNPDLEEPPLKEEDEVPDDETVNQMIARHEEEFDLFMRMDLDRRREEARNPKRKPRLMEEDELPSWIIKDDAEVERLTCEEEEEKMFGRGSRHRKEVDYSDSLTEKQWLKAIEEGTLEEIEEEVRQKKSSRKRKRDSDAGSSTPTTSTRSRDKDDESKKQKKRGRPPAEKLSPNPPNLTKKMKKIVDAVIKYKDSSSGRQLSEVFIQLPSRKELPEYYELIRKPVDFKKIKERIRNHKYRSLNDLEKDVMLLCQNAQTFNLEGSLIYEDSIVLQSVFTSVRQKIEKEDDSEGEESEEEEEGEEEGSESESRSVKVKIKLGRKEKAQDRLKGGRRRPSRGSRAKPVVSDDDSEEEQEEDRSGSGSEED

SMILES: CC(C)[C@@H](C(=O)N1C[C@H](O)C[C@H]1C(=O)N[C@@H](C)c1ccccc1)c1cc(N2CC[C@@H](c3ccc4cc(-c5ccccc5O)nnc4c3)C2)no1 [Compound 116, (2S,4R)-4-hydroxy-1-((R)-2-(3-((S)-3-(3-(2-hydroxyphenyl)cinnolin-7-yl)pyrrolidin-1-yl)isoxazol-5-yl)-3-methylbutanoyl)-N-((S)-1-phenylethyl)pyrrolidine-2-carboxamide]
- Dmax [1]: < 50%
- DC50 [2]: < 0.01 µM
- BRM HiBit Degradation Maximum (%) [2]: A (“A” indicates maximum degradation ≥75%)

SMILES: Cc1ncsc1-c1ccc(CNC(=O)[C@@H]2C[C@@H](O)CN2C(=O)C(c2cc(N3CC4(CN(c5ccc6cc(-c7ccccc7O)nnc6c5)C4)C3)no2)C(C)C)cc1 (stereo partly drawn) [Compound 117, (2S,4R)-4-hydroxy-1-(2-(3-(6-(3-(2-hydroxyphenyl)cinnolin-7-yl)-2,6-diazaspiro[3.3]heptan-2-yl)isoxazol-5-yl)-3-methylbutanoyl)-N-(4-(4-methylthiazol-5-yl)benzyl)pyrrolidine-2-carboxamide]
- Dmax [1]: < 50%
- DC50 [2]: < 0.01 µM
- BRM HiBit Degradation Maximum (%) [2]: A (“A” indicates maximum degradation ≥75%)

SMILES: CC(C)[C@@H](C(=O)N1C[C@H](O)C[C@H]1C(=O)N[C@@H](C)c1ccccc1)c1cc(N2CC[C@H](c3ccc4cc(-c5ccccc5O)nnc4c3)C2)no1 [Compound 118, (2S,4R)-4-hydroxy-1-((R)-2-(3-((R)-3-(3-(2-hydroxyphenyl)cinnolin-7-yl)pyrrolidin-1-yl)isoxazol-5-yl)-3-methylbutanoyl)-N-((S)-1-phenylethyl)pyrrolidine-2-carboxamide]
- Dmax [1]: < 50%
- DC50 [2]: > 0.01 µM
- BRM HiBit Degradation Maximum (%) [2]: A (“A” indicates maximum degradation ≥75%)

SMILES: CC(C)C(C(=O)N1C[C@H](O)C[C@H]1C(=O)NCC12CC(C1)C2)c1cc(N2CC3(CN(c4ccc5cc(-c6ccccc6O)nnc5c4)C3)C2)no1 (stereo partly drawn) [Compound 119, (2S,4R)-N-(bicyclo[1.1.1]pentan-1-ylmethyl)-4-hydroxy-1-(2-(3-(6-(3-(2-hydroxyphenyl)cinnolin-7-yl)-2,6-diazaspiro[3.3]heptan-2-yl)isoxazol-5-yl)-3-methylbutanoyl)pyrrolidine-2-carboxamide]
- Dmax [1]: < 50%
- DC50 [2]: > 0.01 µM
- BRM HiBit Degradation Maximum (%) [2]: A (“A” indicates maximum degradation ≥75%)

SMILES: CC(C)C(C(=O)N1C[C@H](O)C[C@H]1C(=O)N[C@@H](C)c1ccccn1)c1cc(N2CC3(CN(c4ccc5cc(-c6ccccc6O)nnc5c4)C3)C2)no1 (stereo partly drawn) [Compound 120, (2S,4R)-4-hydroxy-1-(2-(3-(6-(3-(2-hydroxyphenyl)cinnolin-7-yl)-2,6-diazaspiro[3.3]heptan-2-yl)isoxazol-5-yl)-3-methylbutanoyl)-N-((S)-1-(pyridin-2-yl)ethyl)pyrrolidine-2-carboxamide]
- Dmax [1]: < 50%
- DC50 [2]: > 0.01 µM
- BRM HiBit Degradation Maximum (%) [2]: A (“A” indicates maximum degradation ≥75%)

SMILES: Cc1cc2cc(-c3ccccc3O)nnc2cc1N1CC2(CN(c3cc([C@H](C(=O)N4C[C@H](O)C[C@H]4C(=O)N[C@@H](C)c4ccc(-c5scnc5C)cc4)C(C)C)on3)C2)C1 [Compound 121, (2S,4R)-4-hydroxy-1-((R)-2-(3-(6-(3-(2-hydroxyphenyl)-6-methylcinnolin-7-yl)-2,6-diazaspiro[3.3]heptan-2-yl)isoxazol-5-yl)-3-methylbutanoyl)-N-((S)-1-(4-(4-methylthiazol-5-yl)phenyl)ethyl)pyrrolidine-2-carboxamide]
- DC50 [1]: < 0.01 µM
- Dmax [1]: > 75%
- DC50 [2]: < 0.01 µM
- BRM HiBit Degradation Maximum (%) [2]: A (“A” indicates maximum degradation ≥75%)

SMILES: Cc1ncsc1-c1ccc([C@H](C)NC(=O)[C@@H]2C[C@@H](O)CN2C(=O)[C@@H](c2cc(N3CCC4(CC3)CC(N(C)c3ccc5cc(-c6ccccc6O)nnc5c3)C4)no2)C(C)C)cc1 [Compound 122, (2S,4R)-4-hydroxy-1-((R)-2-(3-(2-((3-(2-hydroxyphenyl)cinnolin-7-yl)(methyl)amino)-7-azaspiro[3.5]nonan-7-yl)isoxazol-5-yl)-3-methylbutanoyl)-N-((S)-1-(4-(4-methylthiazol-5-yl)phenyl)ethyl)pyrrolidine-2-carboxamide]
- DC50 [1]: < 0.01 µM
- Dmax [1]: > 75%
- DC50 [2]: < 0.01 µM
- BRM HiBit Degradation Maximum (%) [2]: A (“A” indicates maximum degradation ≥75%)

SMILES: Cc1ncsc1-c1ccc([C@H](C)NC(=O)[C@@H]2C[C@@H](O)CN2C(=O)[C@@H](c2cc(N3CCN([C@H]4CCN(c5ccc6nnc(-c7ccccc7O)cc6c5)CC4(F)F)CC3)no2)C(C)C)cc1 [Compound 123, (2S,4R)-1-((R)-2-(3-(4-((S)-3,3-difluoro-1-(3-(2-hydroxyphenyl)cinnolin-6-yl)piperidin-4-yl)piperazin-1-yl)isoxazol-5-yl)-3-methylbutanoyl)-4-hydroxy-N-((S)-1-(4-(4-methylthiazol-5-yl)phenyl)ethyl)pyrrolidine-2-carboxamide]
- DC50 [1]: < 0.01 µM
- Dmax [1]: > 75%
- DC50 [2]: < 0.01 µM
- BRM HiBit Degradation Maximum (%) [2]: A (“A” indicates maximum degradation ≥75%)

SMILES: Cc1ncsc1-c1ccc([C@H](C)NC(=O)[C@@H]2C[C@@H](O)CN2C(=O)[C@@H](c2cc(N3CCN([C@@H]4CCN(c5ccc6nnc(-c7ccccc7O)cc6c5)CC4(F)F)CC3)no2)C(C)C)cc1 [Compound 124, (2S,4R)-1-((R)-2-(3-(4-((R)-3,3-difluoro-1-(3-(2-hydroxyphenyl)cinnolin-6-yl)piperidin-4-yl)piperazin-1-yl)isoxazol-5-yl)-3-methylbutanoyl)-4-hydroxy-N-((S)-1-(4-(4-methylthiazol-5-yl)phenyl)ethyl)pyrrolidine-2-carboxamide]
- DC50 [1]: < 0.01 µM
- Dmax [1]: > 75%
- DC50 [2]: < 0.01 µM
- BRM HiBit Degradation Maximum (%) [2]: A (“A” indicates maximum degradation ≥75%)

SMILES: Cc1ncsc1-c1ccc([C@H](C)NC(=O)[C@@H]2C[C@@H](O)CN2C(=O)[C@@H](c2cc(N3CC4(CN(c5cc(C6CC6)c6cc(-c7ccccc7O)nnc6c5)C4)C3)no2)C(C)C)cc1 [Compound 125, (2S,4R)-1-((R)-2-(3-(6-(5-cyclopropyl-3-(2-hydroxyphenyl)cinnolin-7-yl)-2,6-diazaspiro[3.3]heptan-2-yl)isoxazol-5-yl)-3-methylbutanoyl)-4-hydroxy-N-((S)-1-(4-(4-methylthiazol-5-yl)phenyl)ethyl)pyrrolidine-2-carboxamide]
- Dmax [1]: < 50%
- DC50 [2]: < 0.01 µM
- BRM HiBit Degradation Maximum (%) [2]: A (“A” indicates maximum degradation ≥75%)

SMILES: Cc1ncsc1-c1ccc([C@H](C)NC(=O)[C@@H]2C[C@@H](O)CN2C(=O)[C@@H](c2cc(N3CC4(C3)CN(c3cc5nnc(-c6ccccc6O)cc5cc3C3CC3)C4)no2)C(C)C)cc1 [Compound 126, (2S,4R)-1-((R)-2-(3-(6-(6-cyclopropyl-3-(2-hydroxyphenyl)cinnolin-7-yl)-2,6-diazaspiro[3.3]heptan-2-yl)isoxazol-5-yl)-3-methylbutanoyl)-4-hydroxy-N-((S)-1-(4-(4-methylthiazol-5-yl)phenyl)ethyl)pyrrolidine-2-carboxamide]
- DC50 [1]: < 0.01 µM
- Dmax [1]: > 75%
- DC50 [2]: < 0.01 µM
- BRM HiBit Degradation Maximum (%) [2]: A (“A” indicates maximum degradation ≥75%)

SMILES: Cc1ncsc1-c1ccc([C@H](C)NC(=O)[C@@H]2C[C@@H](O)CN2C(=O)[C@@H](c2cc(N3CC4(CN(c5ccc6cc(-c7ccccc7O)nnc6c5)CCO4)C3)no2)C(C)C)cc1 [Compound 127, (2S,4R)-4-hydroxy-1-((R)-2-(3-(8-(3-(2-hydroxyphenyl)cinnolin-7-yl)-5-oxa-2,8-diazaspiro[3.5]nonan-2-yl)isoxazol-5-yl)-3-methylbutanoyl)-N-((S)-1-(4-(4-methylthiazol-5-yl)phenyl)ethyl)pyrrolidine-2-carboxamide]
- DC50 [1]: < 0.01 µM
- Dmax [1]: > 75%
- DC50 [2]: < 0.01 µM
- BRM HiBit Degradation Maximum (%) [2]: A (“A” indicates maximum degradation ≥75%)

SMILES: Cc1ncsc1-c1ccc([C@H](C)NC(=O)[C@@H]2C[C@@H](O)CN2C(=O)[C@H](C(C)C)n2cc(-c3ccc4nnc(-c5ccccc5O)cc4c3)nn2)cc1 [Compound 128, (2S,4R)-4-hydroxy-1-((S)-2-(4-(3-(2-hydroxyphenyl)cinnolin-6-yl)-1H-1,2,3-triazol-1-yl)-3-methylbutanoyl)-N—((S)-1-(4-(4-methylthiazol-5-yl)phenyl)ethyl)pyrrolidine-2-carboxamide]
- DC50 [1]: < 0.01 µM
- Dmax [1]: > 75%
- DC50 [2]: < 0.01 µM
- BRM HiBit Degradation Maximum (%) [2]: A (“A” indicates maximum degradation ≥75%)

SMILES: Cc1ncsc1-c1ccc([C@H](C)NC(=O)[C@@H]2C[C@@H](O)CN2C(=O)[C@@H](c2cc(N3CC4(CN(c5ccc6nnc(-c7ccccc7O)cc6c5)CCO4)C3)no2)C(C)C)cc1 [Compound 129, (2S,4R)-4-hydroxy-1-((R)-2-(3-(8-(3-(2-hydroxyphenyl)cinnolin-6-yl)-5-oxa-2,8-diazaspiro[3.5]nonan-2-yl)isoxazol-5-yl)-3-methylbutanoyl)-N-((S)-1-(4-(4-methylthiazol-5-yl)phenyl)ethyl)pyrrolidine-2-carboxamide]
- Dmax [1]: < 50%
- DC50 [2]: < 0.01 µM
- BRM HiBit Degradation Maximum (%) [2]: A (“A” indicates maximum degradation ≥75%)

— US20260193264A1, “BENZOYPARAZINE PYRAZINES AND THEIR USES” (FOGHORN THERAPEUTICS INC., priority 2022, published 2026)
